Laboratory results taken from patent publication US10099045B2, “Administration of antibiotics and therapeutic agents” (priority 2008, dated 2018).
Several values for one entry are separate records, joined by “and”; a condition that tells them apart may be missing. Equal values may be shown once. Read-outs that look alike come from different tables or passages of the source.

Columns and labels:
STA 29213 MSSA = assay: MIC of Cefazolin, broth dilution method; assay type: cell-based, S. aureus; settings: for MIC/Cefazolin: single determinations
Excerpt: (§1) Accordingly, further tests of Cephazolin with a range of different MRSA strains at concentrations well above the dose achievable by IV delivery were made to understand these finding. The Minimum inhibitory concentration (MIC) of Cephazolin with respect to these various strains is reported below in Table 1 in units are in .mu·g/ml of Cefazolin using the broth dilution method. MIC is the lowest concentration of an antimicrobial that will inhibit the visible growth of a microorganism after overnight incubation. STA 29213 is the conventional strain of S. aureus, showing normal sensitivity to Cefazolin with an MIC of 0.5.mu·g/ml.
(§2) The colony count in the last column is just a quality control measure to insure the correct innooculum.

MRSA 116 = assay: MIC of Cefazolin, broth dilution method; assay type: cell-based, Staphylococcus aureus
Excerpt: as §1, §2

MRSA 142 ATCC 33591 MRSA = assay: MIC of Cefazolin, broth dilution method; assay type: cell-based, Staphylococcus aureus
Excerpt: as §1, §2

MRSA 143 = assay: MIC of Cefazolin, broth dilution method; assay type: cell-based, Staphylococcus aureus
Excerpt: as §1, §2

MRSA 144 = assay: MIC of Cefazolin, broth dilution method; assay type: cell-based, Staphylococcus aureus
Excerpt: as §1, §2

MRSA 145 = assay: MIC of Cefazolin, broth dilution method; assay type: cell-based, Staphylococcus aureus
Excerpt: as §1, §2

MRSA 146 = assay: MIC of Cefazolin, broth dilution method; assay type: cell-based, Staphylococcus aureus
Excerpt: as §1, §2

MRSA 147 = assay: MIC of Cefazolin, broth dilution method; assay type: cell-based, Staphylococcus aureus
Excerpt: as §1, §2

MRSA 148 = assay: MIC of Cefazolin, broth dilution method; assay type: cell-based, Staphylococcus aureus
Excerpt: as §1, §2

MRSA 149 = assay: MIC of Cefazolin, broth dilution method; assay type: cell-based, Staphylococcus aureus
Excerpt: as §1, §2

MRSA 150 = assay: MIC of Cefazolin, broth dilution method; assay type: cell-based, Staphylococcus aureus
Excerpt: as §1, §2

MRSA 151 = assay: MIC of Cefazolin, broth dilution method; assay type: cell-based, Staphylococcus aureus
Excerpt: as §1, §2

MRSA 152 = assay: MIC of Cefazolin, broth dilution method; assay type: cell-based, Staphylococcus aureus
Excerpt: as §1, §2

MRSA 56 (494) = assay: MIC of Cefazolin, broth dilution method; assay type: cell-based, Staphylococcus aureus
Excerpt: as §1, §2

Mu 3 MRSA hVISA = assay: MIC of Cefazolin, broth dilution method; assay type: cell-based, Staphylococcus aureus; settings: for MIC/Cefazolin: single determinations
Excerpt: as §1, §2

Mu 50 MRSA VISA = assay: MIC of Cefazolin, broth dilution method; assay type: cell-based, Staphylococcus aureus
Excerpt: as §1, §2

STA 25923 MSSA = assay: MIC of Cefazolin, broth dilution method; assay type: cell-based, Staphylococcus aureus
Excerpt: as §1, §2

[1] = Adipose tissue and serum concentration after subcutaneous infusion with transcutaneous ultrasound, elective abdominoplasty; settings: for blood serum concentration: 1 gm subcutaneous plus ultrasound, when surgery was completed about an hour later
Method: A prophylactic dose of the antibiotic Cafazolin was delivered to a patient by the above procedure prior to elective abdominoplasty using the Silberg Tissue Preparation Systems TM Model ME 800 (9801427) Mettler Surgical, Anaheim, Calif.). About 250 cc of prewarmed saline containing 1 gm of Cefazolin was injected under a surgical incision line 201 that was about 5 cm long. Small sample of adipose tissue where taken during the surgical procedure to determine if the Cefazolin would remain above desired concentration reported by Ohge et al., and thus remain sufficiently high through the procedure. Further, blood serum samples were taken during the procedure to determine the potential for a longer term systemic delivery.

[2] = tested on: methicillin-sensitive Staphylococcus aureus (MSSA), Klebsiella pneumoniae, Escherichia coli, Streptococcus spp.; settings: 360 MSSA, 204 K. pneumoniae, 314 E. coli, 30 Streptococcus spp. isolates; cited from earlier work
[3] = intravenous bolus 1 g, cited from earlier work
[4] = Staphylococcus aureus, read-out: Median MIC

`Cc1nnc(SCC2=C(C(=O)O)N3C(=O)[C@@H](NC(=O)Cn4cnnn4)[C@H]3SC2)s1` [Cefazolin] gave an MIC (STA 29213 MSSA; [4]) of 0.5 µg/mL, an MIC/Cefazolin (STA 29213 MSSA; MSSA strain) of 1 µg/mL and an MIC/Cefazolin (STA 29213 MSSA; conventional S. aureus strain STA 29213) of 0.5 µg/mL. For the same compound, the MIC/Cefazolin (MRSA 116; MRSA 116, single determinations) was 512 µg/mL and 256 µg/mL, the MIC (MRSA 116; Staphylococcus aureus, MRSA 116, read-out: Median MIC) was 256 µg/mL and the MIC/Cefazolin (MRSA 142 ATCC 33591 MRSA; MRSA 142 ATCC 33591, single determinations) was 256 µg/mL. The MIC (MRSA 142 ATCC 33591 MRSA; Staphylococcus aureus, MRSA 142 ATCC 33591, read-out: Median MIC) was 256 µg/mL, the MIC/Cefazolin (MRSA 143; MRSA 143, single determinations) was 64 µg/mL and 128 µg/mL and the MIC (MRSA 143; Staphylococcus aureus, MRSA 143, read-out: Median MIC) was 128 µg/mL. For the same compound, the MIC/Cefazolin (MRSA 144; MRSA 144, single determinations) was 64 µg/mL and 128 µg/mL, the MIC (MRSA 144; Staphylococcus aureus, MRSA 144, read-out: Median MIC) was 64 µg/mL and the MIC/Cefazolin (MRSA 145; MRSA 145, single determinations) was 128 µg/mL. For the same compound, the MIC (MRSA 145; Staphylococcus aureus, MRSA 145, read-out: Median MIC) was 128 µg/mL, the MIC/Cefazolin (MRSA 146; MRSA 146, single determinations) was 64 µg/mL and 128 µg/mL and the MIC (MRSA 146; Staphylococcus aureus, MRSA 146, read-out: Median MIC) was 64 µg/mL. The MIC/Cefazolin (MRSA 147; MRSA 147, single determinations) was 64 µg/mL, the MIC (MRSA 147; Staphylococcus aureus, MRSA 147, read-out: Median MIC) was 64 µg/mL and the MIC/Cefazolin (MRSA 148; MRSA 148, single determinations) was 256 µg/mL and 128 µg/mL. The MIC (MRSA 148; Staphylococcus aureus, MRSA 148, read-out: Median MIC) was 256 µg/mL, the MIC/Cefazolin (MRSA 149; MRSA 149, single determinations) was 128 µg/mL and the MIC (MRSA 149; Staphylococcus aureus, MRSA 149, read-out: Median MIC) was 128 µg/mL. For the same compound, the MIC/Cefazolin (MRSA 150; MRSA 150, single determinations) was 512 µg/mL, the MIC (MRSA 150; Staphylococcus aureus, MRSA 150, read-out: Median MIC) was 512 µg/mL and the MIC/Cefazolin (MRSA 151; MRSA 151, single determinations) was 128 µg/mL. For the same compound, the MIC (MRSA 151; Staphylococcus aureus, MRSA 151, read-out: Median MIC) was 128 µg/mL, the MIC/Cefazolin (MRSA 152; MRSA 152, single determinations) was 4 µg/mL and 8 µg/mL and the MIC (MRSA 152; Staphylococcus aureus, MRSA 152, read-out: Median MIC) was 4 µg/mL. For the same compound, the MIC (MRSA 56 (494); [4]) was 128 µg/mL, the MIC/Cefazolin (MRSA 56 (494); single determinations) was 64 µg/mL and 128 µg/mL and the “MIC relative to the dose required for normal strains” value (Mu 3 MRSA hVISA; MU 3, most resistant strain) was “about 50 times”. For the same compound, the MIC/Cefazolin (Mu 3 MRSA hVISA; Mu 3 MRSA hVISA) was 512 µg/mL, the MIC/Cefazolin (Mu 3 MRSA hVISA; Mu 3 MRSA hVISA, listed as antibiotic) was “about 512 μg/ml” and the MIC (Mu 3 MRSA hVISA; Staphylococcus aureus, Mu 3 MRSA hVISA, read-out: Median MIC) was 512 µg/mL. It also gave an MIC (Mu 50 MRSA VISA; [4]) of 256 µg/mL, an MIC/Cefazolin (Mu 50 MRSA VISA; single determinations) of 256 µg/mL and an MIC (STA 25923 MSSA; [4]) of 0.5 µg/mL. For the same compound, the MIC/Cefazolin (STA 25923 MSSA; single determinations) was 0.5 µg/mL, the blood serum concentration [1] was “about 10 μg/ml” and the blood serum concentration ([1]; listed as antibiotic) was “less than 10 μg/ml”. The “tissue concentration relative to intravenous administration of Ohge et al.” value ([1]; human, in vivo) was “about 50 times”, the Kp ([1]; human, in vivo, 1 gm) was < 10 and the “tissue level to achieve minimum inhibitory concentrations for 80% (MIC80) of four bacterial species” value [2] was “about 4 μg/ml”. The serum concentration ([3]; after about 4 hours) was “about 10 μg/ml”, the mean tissue concentration ([3]; after slightly more than 2 hours of surgery) was “below 4 μg/ml” and the mean tissue concentration ([3]; an hour after surgery commenced) was “about 10 μg/ml”. For the same compound, the mean tissue concentration ([3]; an hour after surgery commenced, listed as antibiotic) was 10 µg/mL, the serum concentration ([3]; end of the same time period (slightly more than 2 hours)) was ~40000 ng/mL and the serum concentration ([3]; start of the same time period (an hour after surgery commenced)) was “about 80 μg/ml”.
